Where “and” joins values, the source holds several entries; their conditions need not be identical. Identical values can stand only once. Like-named read-outs stand apart in the source and are kept apart here.
Legend:
[1] = biological target: Ae. aegypti NPYLR7 (Aedes aegypti, UniProt U5N1H5); assay: In vitro calcium (GCaMP6s) FLIPR assay in HEK293T cells transfected with NPYLR7; assay type: cell-based; conditions: for activation at 100 µM: single replicate of the dose-response curve
Procedure: The in vitro screening assay was adapted from, and carried out at HD Biosciences (HDB, Shanghai) as follows: HEK293T (Thermo Fisher Scientific) cells were grown in Dulbecco’s modified Eagle medium (DMEM) (high glucose, with glutamine), 10% fetal bovine serum, 1% penicillin–streptomycin (Pen/Strep), seeded in a 75 cm^2 flask, and incubated at 37 °C and 5% CO2. Cells were transiently transfected with 1 μg of each plasmid expressing GCaMP6s (Addgene […]) (Chen et al., 2013), mouse Gqα15 (Addgene #40753) (Offermanns and Simon, 1995) and Ae. aegypti NPYLR7 (Addgene #52392) (Duvall et al. 2019) using Lipofectamine 2000 (Invitrogen) in 4 ml of Opti-MEM (Invitrogen). This mixture was added to a plate after 20 min and incubated for 6–8 h. Cells were then trypsinized, resuspended in phenol-free media, and plated in a 384-well plate (Greiner Bio-One) at a density of 20,000 cells per 40 μl, and incubated overnight (37 °C, 5% CO2). Cells were imaged directly in phenol-free media. Plates were loaded into a Molecular Devices fluorescence imaging plate reader (FLIPR) with an excitation wavelength of 470–495 nm and an emitted wavelength of 515–575 nm. Plates were imaged every second for 5 min. After 30 s of baseline fluorescence recording, 10 μl of the test compound in reading buffer [Hank’s Balanced Salt Solution (Gibco) + 20 mM HEPES (Sigma-Aldrich)] was added. Concentrations tested ranged from 0 to 100 μM. Data were collected in raw fluorescence units (RFU).
Each test plate included replicates of 10 μM FMRFa3 (H‐Ala‐Gly‐Gln‐Gly‐Phe‐Met‐Arg‐Phe‐NH2), an Ae. aegypti neuropeptide agonist of NPYLR7 used to calculate the hundred percent effect (HPE). The zero percent effect (ZPE) control was calculated as a response to buffer alone. The Z′ factor was calculated for each plate by Z^′=1-3σHPE+3σZPE/|μHPE-μZPE| . Plates with Z′ < 0.5 were excluded from analysis. Raw fluorescence units (RFU) were converted to percent effect relative to the average of the ZPE and HPE. Percent effect = (sample luminescence − average ZPE)/(average HPE − average ZPE)×100. […] Each replicate was plotted as percent effect versus log[concentration], and replicates with maximal responses between 20 and 250% were used for EC50 calculations. Relative EC50 was calculated using an [Agonist] versus response–variable slope four-parameter model where Y=Bottom+(X^Hillslope)∗(Top-Bottom)/(X^HillSlope+EC50^HillSlope) . For compounds with multiple replicates, the relative EC50 of each replicate was averaged.

[2] = tested on: Aedes aegypti (Orlando strain) females; assay: Host-seeking screening assay (miniport olfactometer); assay type: in vivo; conditions: fed 1 μM in saline, tested 48 h post-meal; for Attraction (relative to saline): per-compound value of Fig. 3C; for Host-seeking relative to saline (test compound % host-seeking/average matched saline % host-seeking): individual replicates
Procedure: Groups of 60–150 females were placed in bucket cages with a diameter of 21.6 cm and height of 16.5 cm (VWR) and fasted with access to water for 24 h prior to feeding. Meals were delivered to females via Glytube membrane feeders as described previously. Meals consisted of 1.5 ml sheep blood (HemoStat Laboratories), saline (400 mM NaHCO3 + dih2O), or saline and test compound. Lyophilized compounds were stored at room temperature until use. High-concentration stocks (30 mM in 100% dimethyl sulfoxide [DMSO]) (Sigma-Aldrich) were stored at −20 °C and diluted in saline immediately prior to feeding. Once prepared, meals and glycerol heating elements were warmed in a 42 °C water bath for 15 min to provide warmth to attract mosquitos to feed. ATP (1 mM final concentration) and test compounds (1 μM final concentration) were added prior to placing the meal on top of the mesh on the cage containing female mosquitos. Females were allowed 15–20 min to feed to repletion. Abdominal engorgement was scored by eye and confirmed by weighing females to ensure full feeding (Data S1). […] Females were returned to their original cage with a diH2O wick for 48 h prior to behavioral testing. The lethality of each compound was measured by counting the number of dead females in each cage 24 h post-meal.
Miniport olfactometers were fabricated in-house as described previously. Information regarding design, construction, and use can be found at https://github.com/VosshallLab/Miniport-Construction. Miniport canisters consisted of a 6″ × 3″ × 3″ acrylic tube with a mesh screen to allow for air flow. Groups of 10–20 females were loaded into canisters 24 h post-meal. Females were left in canisters overnight to acclimate with two cotton balls soaked in diH20 to prevent desiccation. Behavior trials began 48 h post-meal. Canisters were randomly assigned to attraction traps 1–4 and given 5 min to acclimate. The stimulus end of the trap was connected to a flowmeter that supplied 5% CO2 at a rate of 30 ml/min. Thirty seconds of CO2 flow was supplied to activate females prior to opening the sliding door. Once opened, the sliding door gave females access to the attraction trap baited with a human-scented nylon stocking previously worn by the same experimenter for 8–10 h to collect body odor and stored in a plastic bag at −20 °C until use. After 5 min, the sliding door was closed and attraction was scored as mosquitoes in the attraction trap/total number of mosquitoes. For each experiment data were normalized to the matched average saline attraction from the same experiment (% attracted/average saline attraction). Any dead mosquitoes were excluded from the analysis. Non-fed females and blood-fed females served as environmental control groups while the saline-fed females served as the vehicle control each day. If non-fed or saline-fed females were less than 50% attracted or if blood-fed females were more than 20% attracted behavioral trials were halted and all data from that experimental day were discarded.

[3] = EC50 of the individual assay date/plate (assay date), read-out: EC50
[4] = Figure 1E Summary, second list (n = 48), read-out: Reported Metric (Summary list)
[5] = HEK-293T, single replicate, normalised response
[6] = relative EC50, percent effect relative to 10 μM FMRFa3, read-out: EC50
[7] = sheet Figure 3C, unit inferred, read-out: EC50
[8] = summary EC50 per compound (mean over assay dates), the unit is taken from the neighbouring EC50 (uM) column, read-out: Reported Metric
[9] = Figure 1E Summary, third list (n = 39), read-out: Reported Metric (Summary list)

Sequence of Ae. aegypti NPYLR7 (U5N1H5 entry or part of it): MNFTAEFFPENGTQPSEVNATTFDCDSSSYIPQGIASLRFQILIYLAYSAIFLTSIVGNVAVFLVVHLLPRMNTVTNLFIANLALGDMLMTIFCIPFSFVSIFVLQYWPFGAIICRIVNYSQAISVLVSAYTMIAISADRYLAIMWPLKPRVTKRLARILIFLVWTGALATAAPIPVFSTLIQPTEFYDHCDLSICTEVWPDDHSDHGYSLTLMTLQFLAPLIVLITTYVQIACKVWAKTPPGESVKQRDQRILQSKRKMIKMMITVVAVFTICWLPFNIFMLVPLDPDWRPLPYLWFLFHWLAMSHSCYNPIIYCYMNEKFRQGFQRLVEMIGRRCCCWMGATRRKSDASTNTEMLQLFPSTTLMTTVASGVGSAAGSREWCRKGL

Row | Structure (SMILES) | EC50 [1, 3] [µM] | EC50 [1, 4] [µM] | activation at 11.1111 µM [1, 5] [%] | activation at 100 µM ([1]; HEK-293T, normalised response) [%] | EC50 [1, 6] [µM] | EC50 [1, 7] [µM] | EC50 [1, 8] [µM] | Attraction (relative to saline) [2] | EC50 [1, 9] [µM] | activation at 3.7037 µM [1, 5] [%] | activation at 33.3333 µM [1, 5] [%] | other results
1 | Cc1nc(NC(=N)N)nc2cc(OCC3CCCCO3)ccc12 (stereo not shown) [TDI-014192] | 5.76 | 5.76 | 55.1 | 67.4 | 5.76 | 5.76 | 5.76 | 1.035 |  |  |  | 
2 | Cc1nc(NC(=N)N)nc2cc(OCc3ccc(S(C)(=O)=O)cc3)ccc12 [TDI-014182] | 0.222 |  | 90.2 |  | 0.222 | 0.222 | 0.222 | 0.9 | 0.222 | 77.6 | 80.3 | activation at 0.4115 µM [1, 5]: 32%; activation at 1.2346 µM [1, 5]: 62.2%
3 | Cc1nc(NC(=N)N)nc2cc(OCC3CCCCC3)ccc12 [TDI-014169] | 4.43 | 4.43 | 78.4 | 113 | 4.44 | 4.43 | 4.43 | 1.025 |  | 42.2 | 94.5 | 
4 | COc1ccc(OCc2ccc3c(C)nc(NC(=N)N)nc3c2)cc1 [TDI-014175] | 0.547 |  | 98.4 | 117 | 0.548 | 0.547 | 0.547 | 0.905 | 0.547 | 89.7 |  | activation at 0.4115 µM [1, 5]: 35.1%; activation at 1.2346 µM [1, 5]: 65.9%
5 | CNc1nc(NC(=N)N)nc2cc(OCc3ccc(OC)cc3)c(OC)cc12 [TDI-014185] | 0.0175 |  | 79.9 |  | 0.0175 | 0.0175 | 0.0175 | 0.79 | 0.0175 |  |  | activation at 0.0457 µM ([1]; HEK-293T, 0.0457 uM, single replicate, normalised response): 70.6%; activation at 0.1372 µM ([1]; HEK-293T, 0.1372 uM, single replicate, normalised response): 69.2%
6 | Cc1nc(NC(=N)N)nc2cc(OCc3cnccn3)ccc12 [TDI-014181] | 6.21 | 6.21 |  |  | 6.21 | 6.21 | 6.21 | 0.975 |  |  |  | 
7 | Cc1nc(NC(=N)N)nc2cc(OCc3cccnn3)ccc12 [TDI-014179] | 39.3 | 39.3 |  |  | 39.3 | 39.3 | 39.3 | 0.865 |  |  | 23.1 | 
8 | Cc1nc(NC(=N)N)nc2cc(OCC3CCOC3)ccc12 (stereo not shown) [TDI-014174] | 5.31 | 5.31 |  | 102 | 5.31 | 5.31 | 5.31 | 1 |  | 42 | 92.2 | Host-seeking relative to saline (test compound % host-seeking/average matched saline % host-seeking) ([2]; listed as TDI-04174): 1.41
9 | CCOc1ccc2c(C)nc(NC(=N)N)nc2c1 [TDI-014177] | 5.6 | 5.6 |  | 49.6 | 5.6 | 5.6 | 5.6 | 0.94 |  |  |  | Host-seeking relative to saline (test compound % host-seeking/average matched saline % host-seeking) ([2]; listed as TDI-04177): 1.17 and 0.9
10 | COc1cc2c(C)nc(NC(=N)N)nc2cc1OCc1ccccc1 [TDI-012943] |  |  |  |  | 0.0545 |  |  | 1.035 | 0.0545 |  |  | EC50 ([1]; Figure 1E summary value per compound, repeated on each replicate line, read-out: Reported Metric (EC50 summarised over assay dates)): 0.0545 µM; EC50 ([1]; fit per assay date/plate (c2), repeated on the replicate lines of one date, read-out: EC50): 0.0446 µM and 0.119 µM
11 | CCOc1cc2c(C)nc(NC(=N)N)nc2cc1OCc1ccccc1 [TDI-013758] | 8.53 | 8.53 |  | 80.6 | 8.53 | 8.53 | 8.53 | 0.78 |  |  |  | Host-seeking relative to saline (test compound % host-seeking/average matched saline % host-seeking) ([2]; listed as TDI-03758): 1.17
12 | Cc1nc(NC(=N)N)nc2cc(OC3CCCc4ccccc43)ccc12 (stereo not shown) [TDI-014183] | 13.7 | 13.7 |  |  | 13.7 | 13.7 | 13.7 | 0.88 |  |  |  | Host-seeking relative to saline (test compound % host-seeking/average matched saline % host-seeking) ([2]; listed as TDI-04183): 0.97

Reference: article PMC11212260, “Next-generation neuropeptide Y receptor small-molecule agonists inhibit mosquito-biting behavior” (Parasites & Vectors, 2024)
